Where two headings read alike, the source gives them in different places.
Columns and labels:
[1] = system: TGF-β; test: AlphaScreen SureFire p-SMAD3 (Ser423/425) assay, TGF-β-stimulated cells; assay type: cell-based
Procedure, shortened: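 The p-SMAD-3 (Ser423/425) SureFire assay measured phosphorylation of endogenous SMAD-3 in cell lysates. Cells were plated overnight in collagen-coated plates, exposed to three-fold serially diluted compounds for about 10 minutes, then stimulated with TGFβ. Lysates (5 μL) received acceptor bead mix for 2 hours, then donor beads for 1½ hours before AlphaScreen reading.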

[2] = system: GDF8; test: AlphaScreen SureFire p-SMAD3 (Ser423/425) assay, GDF8-stimulated cells; assay type: cell-based
Procedure, shortened: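 Lysate (5 μL) went into 384-well shallow plates with 5 μL of Reaction Buffer, Activation Buffer and AlphaScreen Acceptor bead mix. Plates were sealed, kept dark and shaken for 2 hours at room temperature. Donor beads in dilution buffer (2 μL) were added for another 1½ hours, and p-SMAD3 signal was read on a Synergy-4 or Enspire reader.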

[3] = Mus musculus, p-SMAD3 (Ser423/425) AlphaScreen in cell lysate, MPC-11, TGF-β stimulation, read-out: TGF-β: inhibition of TGF-β signaling, TGF-β pSMAD (MPC-11)
[4] = Mus musculus, MPC-11, p-SMAD3 (Ser423/425) AlphaScreen in cell lysate, MPC11, GDF8 stimulation, read-out: GDF8: inhibition of GDF8 signaling, GDF pSMAD (MPC11)
[5] = read-out: TGF-β: inhibition of TGF-β signaling, TGF-β pSMAD (MPC-11), p-SMAD3 (Ser423/425) AlphaScreen in cell lysate, TGF-β stimulation
[6] = read-out: GDF8: inhibition of GDF8 signaling, GDF pSMAD (MPC11), p-SMAD3 (Ser423/425) AlphaScreen in cell lysate, GDF8 stimulation
[7] = Mus musculus, MPC-11, read-out: TGF-β: inhibition of TGF-β signaling, TGF-β pSMAD (MPC-11), p-SMAD3 (Ser423/425) AlphaScreen in cell lysate, TGF-β stimulation
[8] = Mus musculus, MPC-11, read-out: GDF8: inhibition of GDF8 signaling, GDF pSMAD (MPC11), p-SMAD3 (Ser423/425) AlphaScreen in cell lysate, GDF8 stimulation

SMILES	IC50 [1, 3] [nM]	IC50 [2, 4] [nM]	IC50 [1, 7] [nM]	IC50 [2, 8] [nM]	further results
COc1c(C)cc(-c2nc3n(c2-c2ccc4nccn4c2)CCC3)cc1C [Compound 31, 6-(2-(4-methoxy-3,5-dimethylphenyl)-6,7-dihydro-5H-pyrrolo[1,2-c]imidazol-3-yl)imidazo[1,2-c]pyridine]	> 1000	> 1000	–	–	–
Cc1cc(-c2nc3n(c2-c2ccc4ncsc4c2)CCC3)c(Cl)cc1F [Compound 323, 6-(2-(2-chloro-4-fluoro-5-methylphenyl)-6,7-dihydro-5H-pyrrolo[1,2-a]imidazol-3-yl)benzo[d]thiazole]	–	–	–	–	IC50 [1, 5]: > 1000 nM; IC50 [2, 6]: > 1000 nM
Fc1cc(F)c(F)c(-c2nc3n(c2-c2ccc4ncnn4c2)CCC3)c1 [Compound 17, 6-(2-(2,3,5-trifluorophenyl)-6,7-dihydro-5H-pyrrolo[1,2-a]imidazol-3-yl)-[1,2,4]triazolo[1,5-a]pyridine]	> 1000	100 to 1000	–	–	–
Cc1cc(-c2nc3n(c2-c2ccc4nccnc4c2)CCC3)c(C)cc1F [Compound 310, 6-(2-(4-fluoro-2,5-dimethylphenyl)-6,7-dihydro-5H-pyrrolo[1,2-a]imidazol-3-yl)quinoxaline]	–	–	> 1000	100 to 1000	–
Fc1ccc(-c2nc3n(c2-c2ccc4ncnn4c2)CC2(CCCC2)C3)cc1 [Compound 71, 3′-([1,2,4]triazolo[1,5-a]pyridin-6-yl)-2′-(4-fluorophenyl)-5′H,7′H-spiro[cyclopentane-1,6′-pyrrolo[1,2-a]imidazole]]	–	–	> 1000	> 1000	–
Clc1ccc(Cl)c(-c2nc3n(c2-c2ccc4nccn4c2)CCC3)c1 [Compound 93, 6-(2-(2,5-dichlorophenyl)-6,7-dihydro-5H-pyrrolo[1,2-a]imidazol-3-yl)imidazo[1,2-a]pyridine]	–	–	50 to 100	< 50	–
Cc1cccc(-c2nc3n(c2-c2ccc4nccn4c2)CCC3)c1 [Compound 1, 6-(2-(m-tolyl)-6,7-dihydro-5H-pyrrolo[1,2-a]imidazol-3-yl)imidazo[1,2-c]pyridine]	100 to 1000	50 to 100	–	–	–
Cc1ccc(-c2ccc3nccnc3c2)cc1-c1nc2n(c1-c1ccc3nccnc3c1)CCC2 [Compound 341, 6-(4-methyl-3-(3-(quinoxalin-6-yl)-6,7-dihydro-5H-pyrrolo[1,2-a]imidazol-2-yl)phenyl)quinoxaline]	–	–	> 1000	> 1000	–
COCCOc1cnc2ccc(-c3c(-c4cc(C)ccc4F)nc4n3CCC4)cc2n1 [Compound 358, 7-(2-(2-fluoro-5-methylphenyl)-6,7-dihydro-5H-pyrrolo[1,2-a]imidazol-3-yl)-2-(2-methoxyethoxy)quinoxaline]	–	–	100 to 1000	100 to 1000	–
Cc1cc(F)c(Cl)cc1-c1nc2n(c1-c1ccc3nccn3c1)CCC2 [Compound 57, 6-(2-(5-chloro-4-fluoro-2-methylphenyl)-6,7-dihydro-5H-pyrrolo[1,2-a]imidazol-3-yl)imidazo[1,2-a]pyridine]	100 to 1000	100 to 1000	–	–	–
Cc1c(F)ccc(-c2nc3n(c2-c2ccc4ncsc4c2)CCC3)c1Cl [Compound 313, 6-(2-(2-chloro-4-fluoro-3-methylphenyl)-6,7-dihydro-5H-pyrrolo[1,2-a]imidazol-3-yl)benzo[d]thiazole]	–	–	100 to 1000	100 to 1000	–
Cc1cc(F)c(-c2nc3n(c2-c2ccc4nccnc4c2)CCC3)cc1F [Compound 286, 6-(2-(2,5-difluoro-4-methylphenyl)-6,7-dihydro-5H-pyrrolo[1,2-a]imidazol-3-yl)quinoxaline]	–	–	> 1000	> 1000	–
COCCOc1cnc2ccc(-c3c(-c4cc(F)cc(F)c4F)nc4n3CCN4)cc2n1 [Compound 117, 2-(2-methoxyethoxy)-7-(2-(2,3,5-trifluorophenyl)-5,6-dihydro-7λ^2-imidazo[3,2-a]imidazol-3-yl)quinoxaline]	–	–	> 1000	100 to 1000	–
Cc1cc(-c2nc3n(c2-c2ccc4ncsc4c2)CCC3)c(Cl)cc1F [Compound 317, 6-(2-(2-chloro-4-fluoro-5-methylphenyl)-6,7-dihydro-5H-pyrrolo[1,2-a]imidazol-3-yl)benzo[d]thiazole]	–	–	–	–	IC50 [1, 5]: 100 to 1000 nM; IC50 [2, 6]: 50 to 100 nM

Now from value to compound, other results behind:

IC50 [1, 3] [nM]	IC50 [2, 4] [nM]	SMILES	IC50 [1, 7] [nM]	IC50 [2, 8] [nM]	further results
100 to 1000	100 to 1000	Fc1ccc(-c2nc3occn3c2-c2ccc3nccnc3c2)cc1 [Compound 130, 6-(4-fluorophenyl)-5-(quinoxalin-6-yl)imidazo[2,1-b]oxazole]	–	–	–
> 1000	> 1000	Cc1ccc(-c2nc3n(c2-c2ccc4nccnc4c2)CCC3)c(F)c1F [Compound 250, 6-(2-(2,3-difluoro-4-methylphenyl)-6,7-dihydro-5H-pyrrolo[1,2-a]imidazol-3-yl)quinoxaline]	–	–	–
> 1000	> 1000	Cc1cc(-c2nc3n(c2-c2ccc4[nH]ncc4c2)CCC3)cc(C)c1Cl [Compound 243, 5-(2-(4-chloro-3,5-dimethylphenyl)-6,7-dihydro-5H-pyrrolo[1,2-a]imidazol-3-yl)-1H-indazole]	–	–	–
100 to 1000	100 to 1000	OCC1Cn2c(nc(-c3cc(F)cc(F)c3F)c2-c2ccc3nccnc3c2)N1 (stereo not shown) [Compound 124, (5-(quinoxalin-6-yl)-6-(2,3,5-trifluorophenyl)-2,3-dihydro-1H-imidazo[1,2-a]imidazol-2-yl)methanol]	–	–	–
50 to 100	< 50	Cc1cccc(-c2nc3n(c2-c2ccc4cn[nH]c4c2)CCC3)c1 [Compound 169, 6-(2-(m-tolyl)-6,7-dihydro-5H-pyrrolo[1,2-a]imidazol-3-yl)-1H-indazole]	–	–	–
100 to 1000	100 to 1000	Fc1ccc(F)c(-c2nc3n(c2-c2ccc4ncsc4c2)CCC3)c1F [Compound 222, 6-(2-(2,3,6-trifluorophenyl)-6,7-dihydro-5H-pyrrolo[1,2-a]imidazol-3-yl)benzo[d]thiazole]	–	–	–
50 to 100	< 50	Cc1cc(-c2nc3n(c2-c2ccc4nccnc4c2)CCC3)c(F)cc1F [Compound 270, 6-(2-(2,4-difluoro-5-methylphenyl)-6,7-dihydro-5H-pyrrolo[1,2-a]imidazol-3-yl)quinoxaline]	–	–	–
> 1000	> 1000	Cc1cc(-c2nc3n(c2-c2ccc4ncccc4c2)CCC3)cc(Cl)c1F [Compound 275, 6-(2-(3-chloro-4-fluoro-5-methylpheny)-6,7-dihydro-5H-pyrrolo[1,2-a]imidazol-3-yl)quinoline]	–	–	–
< 50	< 50	O=C(O)C1Cn2c(nc(-c3cc(F)cc(F)c3F)c2-c2ccc3ncnn3c2)N1 (stereo not shown) [Compound 118, 5-([1,2,4]triazolo[1,5-a]pyridin-6-yl)-6-(2,3,5-trifluorophenyl)-2,3-dihydro-1H-imidazo[1,2-a]imidazole-2-carboxylic acid]	–	–	–
> 1000	> 1000	Cc1cc(-c2nc3n(c2-c2ccc4ncsc4c2)CCC3)c(F)cc1Cl [Compound 253, 6-(2-(4-chloro-2-fluoro-5-methylpheny)-6,7-dihydro-5H-pyrrolo[1,2-a]imidazol-3-yl)benzo[d]thiazole]	–	–	–
> 1000	> 1000	COCCOc1cnc2ccc(-c3c(-c4cc(F)cc(F)c4F)nc4n3CCCN4)cc2n1 [Compound 167, 2-(2-methoxyethoxy)-7-(2-(2,3,5-trifluorophenyl)-5,6,7,8-tetrahydroimidazo[1,2-a]pyrimidin-3-yl)quinoxaline]	–	–	–
> 1000	> 1000	Cc1ccc(F)cc1-c1nc2n(c1-c1ccc3ncccc3c1)CCC2 [Compound 303]	–	–	–

Source: patent US10696693B2, “Fused imidazole derivatives as TGF-beta inhibitors” (Rigel Pharmaceuticals, Inc., priority 2014, dated 2020)
